# Several values for one entry are separate records, joined by “and”; a condition that tells them apart may be missing. Identical values can stand only once. Like-named read-outs stand apart in the source and are kept apart here.
# Key:
# [1] = test system: gastric acid secretion in pylorus-ligated rats; experiment: Gastric acid inhibition in pylorus-ligated rats; type: in vivo
# Method: The rats were fasted overnight with ad libitum access to water. Drugs and vehicle were administered orally to rats in a blinded manner. The pylorus was ligated under ether anesthesia within 1 h after drug and vehicle administration, and the abdomen was closed by suturing. At 4 h after pyloric ligation, the rats were sacrificed by CO2 asphyxiation, and the stomach was removed ([Hori et al., 2010]). The gastric contents were collected and centrifuged at 3,000 rpm for 10 min. The volume of each sample was measured, the gastric acid concentration was determined by acid-base titration, and the total acidity was calculated.
# gastric pH = experiment: Phase I gastric pH holding time ratio; type: in vivo, humans; settings: unpublished Phase I data
# dogs = experiment: Toxicity in dogs (data to be published); type: in vivo
# rats = experiment: Toxicity in rats (data to be published); type: in vivo
# Gastric H+/K+-ATPase = target: T1, Gastric H+/K+-ATPase (Oryctolagus cuniculus, UniProt P27112); experiment: Inhibition of H+/K+-ATPase activity (Malachite Green Pi assay); type: biochemical, rabbit
# T1 construct: Gastric H^+/K^+-ATPase was prepared from rabbit glands; from tissue; host or cells: rabbit gastric glands
# Method: The H^+/K^+-ATPase inhibition reaction was performed in buffer (50 mM Tris-HCl, 5 mM magnesium chloride, 10 μM valinomycin, pH 6.5) with or without 20 mM potassium chloride (KCl), and inorganic phosphate (Pi) was detected using Malachite Green solution, made from 0.1% malachite green, 1.5% hexaammonium molybdate, and 0.2% Tween-20 in a ratio of 100:25:2 ([Skou, 1982]; [Feng et al., 2011]). Gastric H^+/K^+-ATPase was prepared from rabbit glands, as described previously ([Kondo et al., 2012]; [Arikawa et al., 2012]). The reaction occurred in a 96-well plate with a total volume of 50 µL/well, including buffer, enzyme, ATP, and drug. After 30 min at 37 °C for enzyme stability, ATP was added at 0.2 mM to start the reaction, which was optimized from the titration experiments. The reaction lasted 20 min at 37 °C, followed by the addition of Malachite Green for the colorimetric assay. The enzyme control wells contained the full enzyme system, while the buffer control wells contained only buffer to correct for background values. Absorbance was measured at 620 nm using a plate reader (SpectraMax M5). The inhibition rate was calculated using the following formula, accounting for the enzyme activity in the presence and absence of K^+: Inhibition Rate %=ODwith K+and enzyme,without drug−ODwith K+and enzyme,with drug /ODwith K+and enzyme,without drug−ODwithout K+and enzyme,without drug×100 where “OD with K^+ and enzyme, without drug” is the optical density measured at 620 nm in the presence of K^+ and enzyme, without the tested drug (enzyme control wells); “OD with K^+ and enzyme, with drug” is the optical density measured at 620 nm in the presence of K^+ and enzyme, with the tested drug; and “OD without K^+ and enzyme, without drug” is the optical density measured at 620 nm in the absence of K^+ and enzyme, without the tested drug (buffer control wells).
# [2] = test system: histamine-stimulated acid secretion in pylorus-ligated rats; experiment: Histamine-stimulated acid secretion in pylorus-ligated rat models; type: in vivo, Sprague-Dawley rats; settings: histamine 30 mg/kg s.c., pylorus-ligated male rats
# Method: 1.1 Histamine-stimulated acid secretion in pylorus-ligated rat models
# The rats were fasted overnight with ad libitum access to water. Vehicle or X842 (2 mg/kg, 8 mg/kg) was administered orally to male Sprague-Dawley rats using a feeding catheter ina blinded manner. One hour after dosing, the pylorus was ligated under isoflurane anesthesia, and histamine (30 mg/kg/10 mL) was immediately administered subcutaneously. At 3 hours after histamine administration, the rats were sacrificed by carbon dioxide asphyxiation. The gastric contents were collected from the removed stomach. The gastric contents were collected and centrifuged at 3000 rpm for 10 minutes. The volume of each sample was measured, the gastric acid concentration was determined by acid-base titration, and the total acidity was […]
# 2.Supplementary Figures and Tables
# 2.1 Supplementary Figures
# acid secretion = test system: acid secretion; set-up: method as in Gedda et al., 2007; Scarpignato and Hunt, 2024; settings: rats; ref Gedda et al., 2007; Scarpignato and Hunt, 2024; cited from earlier work
# [3] = in the presence of K+ (20 mM KCl), pH 6.5, read-out: IC50, H+/K+-ATPase inhibition
# [4] = in the presence of potassium ions, rabbit gastric glands, read-out: IC50 (Figure 7A)
# T1 sequence (P27112 whole entry): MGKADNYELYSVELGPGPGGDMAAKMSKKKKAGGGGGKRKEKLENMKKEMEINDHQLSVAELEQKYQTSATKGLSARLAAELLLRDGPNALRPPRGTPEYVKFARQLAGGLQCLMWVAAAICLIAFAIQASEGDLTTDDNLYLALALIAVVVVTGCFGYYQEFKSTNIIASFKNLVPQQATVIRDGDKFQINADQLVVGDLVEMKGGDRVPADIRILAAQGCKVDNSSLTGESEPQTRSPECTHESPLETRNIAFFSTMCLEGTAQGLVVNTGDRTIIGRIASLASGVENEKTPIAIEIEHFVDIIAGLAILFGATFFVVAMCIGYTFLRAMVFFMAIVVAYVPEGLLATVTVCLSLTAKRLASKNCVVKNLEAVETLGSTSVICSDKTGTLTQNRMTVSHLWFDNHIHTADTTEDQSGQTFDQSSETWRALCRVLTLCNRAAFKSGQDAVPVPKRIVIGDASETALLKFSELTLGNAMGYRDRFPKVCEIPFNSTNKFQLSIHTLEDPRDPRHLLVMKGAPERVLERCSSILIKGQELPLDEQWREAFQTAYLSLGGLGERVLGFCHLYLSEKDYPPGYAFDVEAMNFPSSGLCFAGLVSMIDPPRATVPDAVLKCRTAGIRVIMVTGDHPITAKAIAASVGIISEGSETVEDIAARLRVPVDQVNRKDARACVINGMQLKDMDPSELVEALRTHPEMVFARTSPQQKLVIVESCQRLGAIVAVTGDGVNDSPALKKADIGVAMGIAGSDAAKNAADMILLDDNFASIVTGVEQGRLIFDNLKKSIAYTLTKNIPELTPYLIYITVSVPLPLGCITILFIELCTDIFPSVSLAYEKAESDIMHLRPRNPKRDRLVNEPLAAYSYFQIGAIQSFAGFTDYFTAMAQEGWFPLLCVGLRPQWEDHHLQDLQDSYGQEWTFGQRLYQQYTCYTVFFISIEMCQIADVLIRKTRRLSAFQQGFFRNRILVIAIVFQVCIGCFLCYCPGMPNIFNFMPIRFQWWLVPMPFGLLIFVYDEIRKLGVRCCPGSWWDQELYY
# T1 sequence (P18597 whole entry partner): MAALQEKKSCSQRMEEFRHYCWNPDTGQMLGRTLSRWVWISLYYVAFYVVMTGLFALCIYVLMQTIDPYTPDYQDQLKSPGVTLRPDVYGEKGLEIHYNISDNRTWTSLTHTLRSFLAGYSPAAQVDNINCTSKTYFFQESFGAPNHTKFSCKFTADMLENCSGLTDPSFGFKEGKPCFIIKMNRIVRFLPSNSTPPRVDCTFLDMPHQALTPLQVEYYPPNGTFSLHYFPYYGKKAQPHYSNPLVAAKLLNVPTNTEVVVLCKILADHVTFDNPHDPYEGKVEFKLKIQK
Compound,Duration of acid suppression ([1]; after a single oral dose),"Total acidity inhibitory rate (%) ([1]; oral 0.15 mg/kg, pylorus-ligated rats (not significant))","Total acidity inhibitory rate (%) ([1]; oral 0.5 mg/kg, pylorus-ligated rats)","Total acidity inhibitory rate (%) ([1]; oral 1.0 mg/kg, pylorus-ligated rats)","Total acidity inhibitory rate (%) ([1]; oral 1.5 mg/kg, pylorus-ligated rats)","Dose required for 50% inhibition (ID50) ([1]; oral, pylorus-ligated rats, total gastric acid) [mg/kg]","Gastric pH ≥4 holding time ratio (HTR) (gastric pH; oral doses ≥50 mg, throughout the 24-h period) [%]","Gastric pH ≥4 holding time ratio (HTR), nocturnal (gastric pH; oral doses ≥100 mg, nocturnal periods (12–24 h)) [%]","Adverse effects (acute, reproductive, teratogenic, carcinogenic toxicity) (dogs)","Adverse effects (acute, reproductive, teratogenic, carcinogenic toxicity) (rats)",Inhibitory effect on H+/K+-ATPase in the absence of K+ (Gastric H+/K+-ATPase),Fold lower inhibitory activity against H+/K+-ATPase compared with linaprazan (Gastric H+/K+-ATPase; in the presence of K+) [fold],IC50 (Gastric H+/K+-ATPase; [3]),IC50 (Gastric H+/K+-ATPase; [4]) [nM],Total acidity inhibitory rate (%) ([2]; oral 2 mg/kg),Total acidity inhibitory rate (%) ([2]; oral 8 mg/kg),Duration of inhibitory effect on acid secretion (acid secretion) [h]
"Cc1cccc(C)c1CNc1cc(C(=O)NCCOC(=O)CCCC(=O)O)cn2c(C)c(C)nc12 [X842, linaprazan glurate]",at least 24 h,6,44,61,85,0.55,> 50,> 50,No significant adverse effects,No significant adverse effects,No measurable inhibitory effect,~10,436 nM,436,66,71,
Cc1cccc(C)c1CNc1cc(C(=O)NCCO)cn2c(C)c(C)nc12 [linaprazan],,,,,,,,,,,No measurable inhibitory effect,,40 nM and 40.2 nM,40.2,,,24
